According to the NIST ThermoML archive (doi:10.1016/j.jct.2015.12.034):
Numbers after ± are expanded uncertainties.

Assay: activity coefficient (dimensionless); of the first substance listed, at infinite dilution; xn = mol fraction of the nth substance listed
Settings: 298.15 K; 238 kPa; Liquid; Chromatography; x1 = 0
Work on `CCCCCCCC` [octane] + CC(C)=O yielded an activity coefficient of 10.7 ± 0.9. For `CCCCCCCC` [octane] + CC#N, the activity coefficient was 52.3 ± 4.5. `Cc1ccccc1` [toluene] + CC(C)=O showed an activity coefficient of 2.01 ± 0.17. For `Cc1ccccc1` [toluene] + CC#N, the activity coefficient was 3.95 ± 0.34.
